In paper PMC12775124, “CUL4A-DDB1-DCAF10 is an N-recognin for N-terminally acetylated Src kinases” (Nature Communications, 2026):

How the values were obtained:
Format in all cases: cell-based, human
[1] = system: DLD-1 Lyn KO Flp-In T-REx cells; test: Direct ubiquitin blot of Lyn-GFP immunoprecipitates; settings: anti-GFP IP, anti-Ub blot, n = 3
Method: Fig. 6 N-terminal glycine mutation abolishes DCAF10-dependent stability and ubiquitination. a DLD-1 Flp-In T-REx cells and Lyn KO cells expressing Lyn^WT-GFP, Lyn^G2A-GFP, or Lyn^G2P-GFP were induced for 24 h with 100 ng/mL doxycycline. Cells were treated with NMT1/2 siRNA, DCAF10 siRNA, or both (or left untreated) for 72 h. Representative WBs are shown. Filled circles represent siRNA treatment, empty circles untreated. b WB quantifications of Lyn levels normalized to vinculin. Purple: untreated with NMT1/2 siRNA; blue: treated with NMT1/2 siRNA. Mean ± s.d. with individual data points are shown (n = 3 independent biological replicates). c Schematic of ubiquitination experiments. Created in BioRender. […] Lysates have been treated with NMT1/2 RNAi for 72 h. i Quantification of in vitro ubiquitination assays. Mean ± s.d. with individual data points are shown (n = 3 independent ubiquitination assays). Volcano plots of Lyn-GFP^WT binding partners: j NMT1/2 siRNA ± doxycycline (Dox); k Control ± doxycycline; l NMT1/2 siRNA vs. control both with doxycycline. The −log10 adjusted p-value (two-sided Student’s t test with permutation-based multiple-testing correction; y-axis) is plotted against the log2 fold change (x-axis). […]
We next assessed the role of the Lyn Nt-residue for ubiquitination by performing two complementary experimental set-ups (Fig. 6c). […]

[2] = system: DLD-1 Flp-In T-REx and Lyn KO cells; test: Level of Lyn / Lyn-GFP variants after NMT1/2 and DCAF10 siRNA, Western blot
Description: To further investigate the role of the Nt-amino acid and its modification in DCAF10 recognition and DCAF10-dependent ubiquitination, we used the CRISPR/Cas9 technique to knock out Lyn in DLD-1 cell lines with T-REx Flp-In background (DLD-1 Lyn KO Flp-In T-REx) (Supplementary Fig. 7a–c). We then integrated Lyn^WT-GFP and two Nt-mutants (Lyn^G2A-GFP and Lyn^G2P-GFP) under a doxycycline-inducible promoter into the Flp-In cassette. Alanine (G2A) is expected to be efficiently acetylated by NatA, generating an Nt-acetylated Lyn mutant. Conversely, the proline (G2P) mutant, is expected not to be acetylated and may retain a free N-terminus[3],[36],[37]. Doxycycline-induced expression of Lyn^WT-GFP, Lyn^G2A-GFP, and Lyn^G2P-GFP was confirmed by Western blot, MS, and fluorescence microscopy (Supplementary Figs. 7d, e; 8a and Supplementary Data 6). While all constructs were ~2–5-fold higher expressed than endogenous Lyn, G2A and G2P were further elevated relative to WT, which may reflect increased stability when Nt-Gly/acetylation is altered (Supplementary Fig. 7e). […] Lyn^WT-GFP mirrored the behavior of endogenous Lyn under NMT1/2 siRNA treatment. Lyn levels decreased with NMT1/2 KD, but were rescued when siRNAs targeting both NMT1/2 and DCAF10 were applied (Fig. 6a, b). […] The weaker reduction of Lyn^WT-GFP may result from Lyn overexpression and the limiting availability of DCAF10.
Fig. 6 N-terminal glycine mutation abolishes DCAF10-dependent stability and ubiquitination. a DLD-1 Flp-In T-REx cells and Lyn KO cells expressing Lyn^WT-GFP, Lyn^G2A-GFP, or Lyn^G2P-GFP were induced for 24 h with 100 ng/mL doxycycline. Cells were treated with NMT1/2 siRNA, DCAF10 siRNA, or both (or left untreated) for 72 h. Representative WBs are shown. Filled circles represent siRNA treatment, empty circles untreated. b WB quantifications of Lyn levels normalized to vinculin. Purple: untreated with NMT1/2 siRNA; blue: treated with NMT1/2 siRNA. Mean ± s.d. with individual data points are shown (n = 3 independent biological replicates). c Schematic of ubiquitination experiments. Created in BioRender. […] Lysates have been treated with NMT1/2 RNAi for 72 h. i Quantification of in vitro ubiquitination assays. Mean ± s.d. with individual data points are shown (n = 3 independent ubiquitination assays). Volcano plots of Lyn-GFP^WT binding partners: j NMT1/2 siRNA ± doxycycline (Dox); k Control ± doxycycline; l NMT1/2 siRNA vs. control both with doxycycline. The −log10 adjusted p-value (two-sided Student’s t test with permutation-based multiple-testing correction; y-axis) is plotted against the log2 fold change (x-axis). Threshold for significance: −log10 p-value ≥ 1.3 (p ≤ 0.05), log2 fold change ≤ −1 or ≥ 1. DCAF10 and Lyn-GFP are marked in green, significant binding partners in purple and in blue, respectively. Source data are provided as a Source data file.
DLD-1 Lyn knockout (KO) Flp-In T-REx cells were generated by CRISPR/Cas9 electroporation using two guide RNAs targeting the LYN locus. Editing and clone validation were confirmed by genomic sequencing, Western blotting, and MS[51]. Stable cell lines expressing doxycycline-inducible Lyn-GFP (WT, G2A, or G2P) were established by FRT/Flp-mediated recombination and validated by antibiotic selection, Western blotting, and fluorescence microscopy. Detailed protocols are provided in the Supplementary Methods and Tables.
461 electroporated using the CM137 program. Following electroporation, the cells were kept […]

[3] = system: pY397 Lyn; test: Phosphorylation of Lyn-GFP variants at pY397, Western blot (reviewers only); settings: preliminary experiment, unstimulated cells, three independent blots
Description: distinct in term of phospho-tyrosine activity?
We agree that understanding the functional consequences of N-terminal acetylation versus myristoylation—particularly regarding kinase activity and localization—is among the most relevant questions and a key next step in this project. As an initial indication, we performed a preliminary experiment using full-length Lyn constructs (LynWT-GFP, LynG2A-GFP, and LynG2P-GFP) with or without NMT1/2 RNAi and probed the activating phospho-tyrosine site of Lyn (pY397). We observed marked […]
upon NMT1/2 knockdown specifically at the activating pY397 site, while global pY levels appeared to be largely unchanged in these unstimulated cells, […] (Figure 2 provided to reviewers only). […]
have not included them in the manuscript but provide them for the reviewers’ information only, as we are working on consequences for kinase activity and biological role. We plan to pursue a systematic analysis under stimulated conditions, quantifying pY patterns and localization changes to define how the N-terminal state affects SFK signaling output. […]
Fig. 2 for reviewers only. a) LynWT-GFP, LynG2A-GFP and LynG2P-GFP expressing cells were treated with NMT1/2 RNAi or left untreated and then blotted against anti-pY397 Lyn, pan-anti-pY and controls. b) Quantification of three independent blots. […]

Lyn^WT-GFP: doxycycline-inducible C-terminally GFP-fused Lyn in DLD-1 Lyn KO cells
Ubiquitination in cells (in words) [1]: ubiquitinated under both conditions, with a stronger signal in controls
Level decrease following NMT1/2 KD ([2]; DLD-1, 72 h NMT1/2 siRNA, 24 h doxycycline 100 ng/mL, WB/vinculin, average, n = 3): 21%
Dependency on NMT1/2 and DCAF10 (in words) ([2]; DLD-1, 72 h siRNA): remained dependent on NMT1/2 and DCAF10
Level increase upon combined NMT1/2 and DCAF10 KD ([2]; DLD-1, 72 h siRNA, WB/vinculin, n = 3): 41.7%
Decrease of pY397 phosphorylation upon NMT1/2 knockdown [3]: approximately 15%
